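Step 1: Grow cells in 96-well plates. Step 2: Expose to compound for 48 hours at 5 concentrations. Step 3: Interpolate endpoints linearly; if unreached, use highest concentration. At the GI50, growth is halved.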 Activity calls are given as the source filed them. Cut-off read from the data, not from the text of the source: active = GI50 up to about 1.1 µM and inactive = higher.
Key:
Experiment in all cases: inhibition of tumour cell growth, NCI panel, 48 h
A549 = system: A549
CCRF-CEM = system: CCRF-CEM
COLO 205 = system: COLO 205
EKVX = system: EKVX
HCT-15 = system: HCT-15
HL-60 = system: HL-60
IGROV-1 = system: IGROV-1
LOX IMVI = system: LOX IMVI
MOLT-4 = system: MOLT-4
OVCAR-4 = system: OVCAR-4
OVCAR-5 = system: OVCAR-5
OVCAR-8 = system: OVCAR-8
RXF 393 = system: RXF 393
SF-295 = system: SF-295
SK-MEL-5 = system: SK-MEL-5
SK-OV-3 = system: SK-OV-3
SNB-19 = system: SNB-19
SW-620 = system: SW-620
U-251 = system: U-251
UACC-62 = system: UACC-62

Compound | GI50 (A549) | GI50 (CCRF-CEM) | GI50 (COLO 205) | GI50 (EKVX) | GI50 (HCT-15) [µM] | GI50 (HL-60) | GI50 (IGROV-1) | GI50 (LOX IMVI) | GI50 (MOLT-4) | GI50 (OVCAR-4) | GI50 (OVCAR-5) | GI50 (OVCAR-8) | GI50 (RXF 393) | GI50 (SF-295) | GI50 (SK-MEL-5) | GI50 (SK-OV-3) | GI50 (SNB-19) | GI50 (SW-620) | GI50 (U-251) | GI50 (UACC-62)
Cn1c(=O)[nH]c2nncnc2c1=O | 80 µM (inactive) | 173 µM (inactive) | 69.2 µM (inactive) | 40.5 µM (inactive) | 299 | 27.9 µM (inactive) | 29.2 µM (inactive) | 361 µM (inactive) | 181 µM (inactive) | 85.5 µM (inactive) | 186 µM (inactive) | 19.8 µM (inactive) | 19.3 µM (inactive) | 103 µM (inactive) | 92.5 µM (inactive) | 146 µM (inactive) | 51.2 µM (inactive) | 75 µM (inactive) | 28.7 µM (inactive) | 44.4 µM (inactive)
Nc1cccc2c1C1=NNC(=O)CC1C2 (stereo not given) | > 100 µM (inactive) | > 100 µM (inactive) | > 100 µM (inactive) | > 76.6 µM (inactive) | > 100 | > 66.5 µM (inactive) | > 100 µM (inactive) | > 100 µM (inactive) | > 100 µM (inactive) | > 100 µM (inactive) | > 100 µM (inactive) | > 100 µM (inactive) | > 100 µM (inactive) | > 100 µM (inactive) | > 100 µM (inactive) | > 100 µM (inactive) | > 100 µM (inactive) | > 100 µM (inactive) | > 100 µM (inactive) | > 100 µM (inactive)
c1ccc2c(c1)OCCc1cn[nH]c1-2 | > 100 µM (inactive) | > 100 µM (inactive) | > 100 µM (inactive) | 80.5 µM (inactive) | > 100 | 60.3 µM (inactive) | > 100 µM (inactive) | > 100 µM (inactive) | > 100 µM (inactive) | > 100 µM (inactive) | > 100 µM (inactive) | > 100 µM (inactive) | > 69.2 µM (inactive) | > 100 µM (inactive) | > 100 µM (inactive) | > 100 µM (inactive) | > 100 µM (inactive) | > 100 µM (inactive) | > 100 µM (inactive) | 66.7 µM (inactive)
C[C@]12CC[C@@H]3c4ccc(OCCN5CCCC5)cc4CC[C@H]3[C@@H]1CCC2=O | 23.6 µM (inactive) | 37.9 µM (inactive) | 8.41 µM (inactive) | 18.2 µM (inactive) | 6.35 | 45.2 µM (inactive) | 12.4 µM (inactive) | 7.38 µM (inactive) | 22.4 µM (inactive) | 21.5 µM (inactive) | 33.7 µM (inactive) | 25.6 µM (inactive) | 25.5 µM (inactive) | 18.7 µM (inactive) | 13.3 µM (inactive) | 48.6 µM (inactive) | 64.3 µM (inactive) | 41 µM (inactive) | 75.2 µM (inactive) | 23.8 µM (inactive)
CSc1nc(CO)c(CO)n1C | > 100 µM (inactive) | > 100 µM (inactive) | > 100 µM (inactive) | > 100 µM (inactive) | > 100 | > 100 µM (inactive) | > 100 µM (inactive) | > 100 µM (inactive) | > 100 µM (inactive) | > 100 µM (inactive) | > 100 µM (inactive) | > 100 µM (inactive) | > 100 µM (inactive) | > 100 µM (inactive) | > 100 µM (inactive) | > 100 µM (inactive) | > 100 µM (inactive) | > 100 µM (inactive) | > 100 µM (inactive) | > 100 µM (inactive)
NC(CCP(=O)(O)CCC1C=CC=CC1)C(=O)O (stereo not given) | > 100 µM (inactive) | > 100 µM (inactive) | > 100 µM (inactive) | > 100 µM (inactive) | > 100 | > 100 µM (inactive) | > 100 µM (inactive) | > 100 µM (inactive) | > 100 µM (inactive) | > 100 µM (inactive) | > 100 µM (inactive) | > 100 µM (inactive) | > 100 µM (inactive) | > 100 µM (inactive) | > 100 µM (inactive) | > 100 µM (inactive) | > 100 µM (inactive) | > 100 µM (inactive) | > 100 µM (inactive) | > 100 µM (inactive)
CSc1nc(NC2OC(CO)C(O)C(O)C2O)c(N)c(=O)[nH]1 (stereo not given) | > 100 µM (inactive) | > 100 µM (inactive) | > 100 µM (inactive) | > 100 µM (inactive) | > 100 | > 100 µM (inactive) | > 100 µM (inactive) | > 100 µM (inactive) | > 100 µM (inactive) | > 100 µM (inactive) | > 100 µM (inactive) | > 100 µM (inactive) | > 100 µM (inactive) | > 100 µM (inactive) | > 100 µM (inactive) | > 100 µM (inactive) | > 100 µM (inactive) | > 100 µM (inactive) | > 100 µM (inactive) | > 100 µM (inactive)
COc1ccc2c(c1O)-c1cc(O)cc3c1[C@@H](C2)N(C)CC3 | 77.1 µM (inactive) | 81.1 µM (inactive) | 50.7 µM (inactive) | 98.4 µM (inactive) | 71.1 | 11 µM (inactive) | 72.8 µM (inactive) | 56.6 µM (inactive) | 66.1 µM (inactive) | 60.5 µM (inactive) | 6.41 µM (inactive) | 8.79 µM (inactive) | 55.7 µM (inactive) | 72.3 µM (inactive) | 62.2 µM (inactive) | 203 µM (inactive) | 101 µM (inactive) | 61.8 µM (inactive) | 10.7 µM (inactive) | 70 µM (inactive)
O=C(c1ccccc1)c1ccc2n[se]nc2c1 | 34.8 µM (inactive) | 17.8 µM (inactive) | 21.1 µM (inactive) | 56.5 µM (inactive) | 14 | 3.56 µM (inactive) | 50.6 µM (inactive) | 29.4 µM (inactive) | 23.9 µM (inactive) | 39.4 µM (inactive) | 36.5 µM (inactive) | 73.5 µM (inactive) | 40.9 µM (inactive) | 7.4 µM (inactive) | 11.8 µM (inactive) | 35.1 µM (inactive) | > 100 µM (inactive) | 10.3 µM (inactive) | > 100 µM (inactive) | 8.51 µM (inactive)
COc1cc(-c2cc(=O)c3c(O)c(CC=C(C)C)c(O)cc3o2)ccc1O | 26 µM (inactive) | 16.8 µM (inactive) | > 50 µM (inactive) | 7.29 µM (inactive) | 15 | > 50 µM (inactive) | 24 µM (inactive) | 19.1 µM (inactive) | 16.3 µM (inactive) | 15.8 µM (inactive) | > 50 µM (inactive) | 26.7 µM (inactive) | 24.4 µM (inactive) | 12 µM (inactive) | 14.6 µM (inactive) | 32.3 µM (inactive) | > 50 µM (inactive) | 16.7 µM (inactive) | 24.1 µM (inactive) | 23 µM (inactive)
CCOC(=O)CSc1nc(N)c2c(-c3ccc(OC)c(OC)c3)c3c(nc2n1)CCCC3 | > 100 µM (inactive) | > 100 µM (inactive) | > 100 µM (inactive) | 95.3 µM (inactive) | > 100 | > 100 µM (inactive) | > 100 µM (inactive) | > 100 µM (inactive) | > 100 µM (inactive) | 34.4 µM (inactive) | > 100 µM (inactive) | 24.3 µM (inactive) | 49.2 µM (inactive) | 24.4 µM (inactive) | > 100 µM (inactive) | 26.9 µM (inactive) | 95.5 µM (inactive) | > 100 µM (inactive) | > 100 µM (inactive) | > 100 µM (inactive)
O=C(Nc1ccccc1F)c1c(O)nc2sccn2c1=O | > 10 µM (inactive) | > 10 µM (inactive) | > 10 µM (inactive) | > 10 µM (inactive) | > 10 | > 10 µM (inactive) | > 10 µM (inactive) | > 10 µM (inactive) | > 10 µM (inactive) | > 10 µM (inactive) | > 10 µM (inactive) | > 10 µM (inactive) | > 10 µM (inactive) | > 10 µM (inactive) | > 10 µM (inactive) | > 10 µM (inactive) | > 10 µM (inactive) | > 10 µM (inactive) | > 10 µM (inactive) | > 10 µM (inactive)

From ChEMBL document CHEMBL1201862, “PubChem BioAssay data set” (2004)
